Consider 27 compounds from ChEMBL document CHEMBL1649408, “Synthesis and in vitro antimycobacterial activity of 8-OCH(3) ciprofloxacin methylene and ethylene isatin derivatives” (Eur J Med Chem, 2011).

For data set [1], the system named is Mycolicibacterium smegmatis. The experiment in a line: Antimycobacterial activity against Mycobacterium smegmatis CMCC 93202 after 72 hrs by serial double dilution technique. The format is functional. The following applies: CMCC 93202, 72 h.
In data set [2] the test system is Mycobacterium tuberculosis. The data set is described as follows: microbe, parasite or virus in culture. It counts as functional. The following applies: H37Rv ATCC 27294, 168 h.
Description: Antimycobacterial activity against Mycobacterium tuberculosis H37Rv ATCC 27294 after 7 days by serial double dilution technique
Data set [3] in a line: Cytotoxicity against african green monkey Vero cells after 72 hrs by MTT assat. The following applies: chlorocebus sabaeus.
Data set [4] relates to Mycobacterium tuberculosis. The experiment in a line: Ratio of compound MIC to 8-OCH3 ciprofloxacin MIC for Mycobacterium tuberculosis H37Rv ATCC 27294. It counts as functional.

Converted amounts (≈) assume the structure as drawn.

For `CCO/N=C1\C(=O)N(CCN2CCN(c3c(F)cc4c(=O)c(C(=O)O)cn(C5CC5)c4c3OC)CC2)c2ccccc21`, the MIC in data set [1] amounted to 5.41 µM (≈ 3.12 µg/mL).
Regarding `COc1c(N2CCN(CN3C(=O)/C(=N\NC(N)=S)c4ccccc43)CC2)c(F)cc2c(=O)c(C(=O)O)cn(C3CC3)c12`, the MIC in data set [1] came out at 2.63 µM (≈ 1.56 µg/mL); in data set [2], 0.13 µM (≈ 0.0772 µg/mL). Also, in data set [3] (Vero cells), the CC50 at 72 h was found to be 154 µM. In addition, the Ratio in data set [4] turned out to be 1.6.
Consider `COc1c(N2CCN(CCN3C(=O)C(=O)c4cc(F)ccc43)CC2)c(F)cc2c(=O)c(C(=O)O)cn(C3CC3)c12`, for which the MIC in data set [1] is 2.83 µM (≈ 1.56 µg/mL).
Turning to `COc1c(N2CCN(CCN3C(=O)/C(=N\NC(N)=S)c4ccccc43)CC2)c(F)cc2c(=O)c(C(=O)O)cn(C3CC3)c12`, the results for the MIC in data set [1] and in data set [2] were 2.57 µM (≈ 1.56 µg/mL) and 1.05 µM (≈ 0.638 µg/mL), respectively. This compound also registered a CC50 at 72 h in data set [3] (Vero cells) of 56.1 µM.
In the case of `COc1c(N2CCNCC2)c(F)cc2c(=O)c(C(=O)O)cn(C3CC3)c12`, the MIC came to 0.54 µM (≈ 0.195 µg/mL) in data set [1] and 0.22 µM (≈ 0.0795 µg/mL) in data set [2]. The compound also yielded a CC50 at 72 h in data set [3] (Vero cells) of 242 µM.
For `O=C(O)c1cn(C2CC2)c2cc(N3CCNCC3)c(F)cc2c1=O` [CIPROFLOXACIN], the MIC came out at 2.36 µM (≈ 0.782 µg/mL) in data set [1] and 0.97 µM (≈ 0.321 µg/mL) in data set [2]. This compound returned a CC50 at 72 h in data set [3] (vero) of 601 µM.
`CO/N=C1\C(=O)N(CCN2CCN(c3c(F)cc4c(=O)c(C(=O)O)cn(C5CC5)c4c3OC)CC2)c2ccc(F)cc21`: the MIC in data set [1] was 2.68 µM (≈ 1.56 µg/mL); in data set [2] it was 1.1 µM (≈ 0.64 µg/mL). In addition, in data set [3] (Vero cells), half-maximal cytotoxicity (CC50 at 72 h) was put at 12.8 µM.
`COc1c(N2CCN(CCN3C(=O)/C(=N\NC(N)=O)c4ccccc43)CC2)c(F)cc2c(=O)c(C(=O)O)cn(C3CC3)c12`: in data set [1], the MIC was 5.28 µM (≈ 3.12 µg/mL).
As to `CO/N=C1\C(=O)N(CN2CCN(c3c(F)cc4c(=O)c(C(=O)O)cn(C5CC5)c4c3OC)CC2)c2ccc(F)cc21`, the MIC in data set [1] worked out at 2.75 µM (≈ 1.56 µg/mL); in data set [2] it was 0.14 µM (≈ 0.0795 µg/mL). Also, in data set [3] (Vero cells), the midpoint of cytotoxicity, the CC50 at 72 h, lay at 46.8 µM. Further, the Ratio in data set [4] turned out to be 1.6.
Take `COc1c(N2CCN(CN3C(=O)C(=O)c4ccccc43)CC2)c(F)cc2c(=O)c(C(=O)O)cn(C3CC3)c12`: the MIC was determined as 24 µM (≈ 12.5 µg/mL) in data set [1] and 0.15 µM (≈ 0.0781 µg/mL) in data set [2]. In data set [3] (Vero cells), this compound returned a CC50 at 72 h of 70.8 µM.
For `COc1c(N2CCN(CN3C(=O)C(=O)c4cc(F)ccc43)CC2)c(F)cc2c(=O)c(C(=O)O)cn(C3CC3)c12`, the MIC in data set [1] was determined as 2.9 µM (≈ 1.56 µg/mL); in data set [2] it was 0.074 µM (≈ 0.0398 µg/mL). The compound also yielded a CC50 at 72 h in data set [3] (Vero cells) of 70.6 µM.
`COc1c(N2CCN(CCN3C(=O)/C(=N\O)c4ccccc43)CC2)c(F)cc2c(=O)c(C(=O)O)cn(C3CC3)c12`: in data set [1], the MIC came out at 11.4 µM (≈ 6.25 µg/mL).
On to `COc1c(N2CCN(CCN3C(=O)/C(=N\NC(N)=S)c4cc(F)ccc43)CC2)c(F)cc2c(=O)c(C(=O)O)cn(C3CC3)c12`, for which the MIC in data set [1] was found to be 2.5 µM (≈ 1.56 µg/mL); in data set [2] it was 1.02 µM (≈ 0.638 µg/mL). In data set [3] (Vero cells), this compound gave a CC50 at 72 h of 57 µM.
For the compound `COc1c(N2CCN(CN3C(=O)/C(=N\O)c4ccccc43)CC2)c(F)cc2c(=O)c(C(=O)O)cn(C3CC3)c12`, the MIC came out at 2.92 µM (≈ 1.56 µg/mL) in data set [1] and 0.15 µM (≈ 0.0803 µg/mL) in data set [2]. Further, the CC50 at 72 h in data set [3] (Vero cells) stood at 74.4 µM.
`COc1c(N2CCN(CCN3C(=O)C(=O)c4ccccc43)CC2)c(F)cc2c(=O)c(C(=O)O)cn(C3CC3)c12` gave an MIC in data set [1] of 5.84 µM (≈ 3.12 µg/mL).
Turning to `CO/N=C1\C(=O)N(CN2CCN(c3c(F)cc4c(=O)c(C(=O)O)cn(C5CC5)c4c3OC)CC2)c2ccccc21`, the MIC in data set [1] came out at 5.68 µM (≈ 3.12 µg/mL); in data set [2] it was 0.15 µM (≈ 0.0824 µg/mL). The same compound had a CC50 at 72 h in data set [3] (Vero cells) of 76.5 µM.
Take `COc1c(N2CCN(CN3C(=O)/C(=N\NC(N)=O)c4ccccc43)CC2)c(F)cc2c(=O)c(C(=O)O)cn(C3CC3)c12`: the figures for the MIC in data set [1] and in data set [2] were 1.35 µM (≈ 0.78 µg/mL) and 0.14 µM (≈ 0.0809 µg/mL), respectively. Further, the midpoint of cytotoxicity in data set [3] (Vero cells), the CC50 at 72 h, lay at 266 µM. Further, in data set [4], the Ratio is 1.6.
Take `CCO/N=C1\C(=O)N(CN2CCN(c3c(F)cc4c(=O)c(C(=O)O)cn(C5CC5)c4c3OC)CC2)c2ccc(F)cc21`: the results for the MIC in data set [1] and in data set [2] were 2.68 µM (≈ 1.56 µg/mL) and 0.55 µM (≈ 0.32 µg/mL), respectively. Moreover, it took 85.8 µM to reach half-maximal cytotoxicity in data set [3] (Vero cells) (CC50 at 72 h).
In data set [1], `CCO/N=C1\C(=O)N(CCN2CCN(c3c(F)cc4c(=O)c(C(=O)O)cn(C5CC5)c4c3OC)CC2)c2ccc(F)cc21` came in with an MIC of 1.31 µM (≈ 0.78 µg/mL).
On to `CO/N=C1\C(=O)N(CCN2CCN(c3c(F)cc4c(=O)c(C(=O)O)cn(C5CC5)c4c3OC)CC2)c2ccccc21`, for which the MIC is 2.77 µM (≈ 1.56 µg/mL) in data set [1] and 1.14 µM (≈ 0.642 µg/mL) in data set [2]. The midpoint of cytotoxicity in data set [3] (Vero cells), the CC50 at 72 h, lay at 306 µM.
Turning to `CO[C@H]1/C=C/O[C@@]2(C)Oc3c(C)c(O)c4c(O)c(c(/C=N/N5CCN(C)CC5)c(O)c4c3C2=O)NC(=O)/C(C)=C\C=C\[C@H](C)[C@H](O)[C@@H](C)[C@@H](O)[C@@H](C)[C@H](OC(C)=O)[C@@H]1C` [RIFAMPIN], the MIC worked out at 3.79 µM (≈ 3.12 µg/mL) in data set [1] and 0.19 µM (≈ 0.156 µg/mL) in data set [2]. This compound also came in with a CC50 at 72 h in data set [3] (Vero cells) of 180 µM.
For the compound `COc1c(N2CCN(CN3C(=O)/C(=N\NC(N)=O)c4cc(F)ccc43)CC2)c(F)cc2c(=O)c(C(=O)O)cn(C3CC3)c12`, the MIC in data set [1] amounted to 2.62 µM (≈ 1.56 µg/mL); in data set [2], 0.13 µM (≈ 0.0774 µg/mL). In data set [3] (Vero cells), this compound came in with a CC50 at 72 h of 168 µM. For the same compound, the Ratio in data set [4] amounted to 1.6.
As for `COc1c(N2CCN(CN3C(=O)/C(=N\O)c4cc(F)ccc43)CC2)c(F)cc2c(=O)c(C(=O)O)cn(C3CC3)c12`, the results for the MIC in data set [1] and in data set [2] were 1.41 µM (≈ 0.78 µg/mL) and 0.14 µM (≈ 0.0775 µg/mL), respectively. The compound further came in with a 50% cytotoxic concentration (CC50) at 72 h in data set [3] (Vero cells) of 73.8 µM.
Take `NNC(=O)c1ccncc1` [ISONIAZID]: the MIC in data set [1] came out at 5.69 µM (≈ 0.78 µg/mL); in data set [2], 0.29 µM (≈ 0.0398 µg/mL).
`COc1c(N2CCN(CCN3C(=O)/C(=N\O)c4cc(F)ccc43)CC2)c(F)cc2c(=O)c(C(=O)O)cn(C3CC3)c12` had an MIC in data set [1] of 22.1 µM (≈ 12.5 µg/mL).
Compound `COc1c(N2CCN(CCN3C(=O)/C(=N\NC(N)=O)c4cc(F)ccc43)CC2)c(F)cc2c(=O)c(C(=O)O)cn(C3CC3)c12` yielded an MIC in data set [1] of 5.12 µM (≈ 3.12 µg/mL).
For the compound `CCO/N=C1\C(=O)N(CN2CCN(c3c(F)cc4c(=O)c(C(=O)O)cn(C5CC5)c4c3OC)CC2)c2ccccc21`, the MIC came out at 2.77 µM (≈ 1.56 µg/mL) in data set [1] and 0.14 µM (≈ 0.0789 µg/mL) in data set [2]. In addition, the CC50 at 72 h in data set [3] (Vero cells) is 91.5 µM.

Broadly, the CC50 is the concentration at which the toxic effect on the cells reaches its halfway point.
